Source: ChEMBL document CHEMBL1152156, “A bulge binding agent with novel wedge-shape topology for stimulation of DNA triplet repeat strand slippage synthesis” (Bioorg Med Chem Lett, 2008)
pKd, pKi: −log10 of the molar value. Activity calls are given as the source filed them. The calls are words filed in the database; no cut-off is given here.

Assays:
[1] = Stimulation of DNA triplet repeat slippage synthesis using p33-labeled (ATT)3 and unlabeled (AAT)5 template assessed as number of base pairs
[2] = Binding affinity to ATT-bulge-DNA by surface plasmon resonance based assay
[3] = Binding affinity to hairpin DNA by surface plasmon resonance based assay
[4] = Stimulation of DNA triplet repeat slippage synthesis using p33-labeled (ATT)3 and unlabeled (AAT)5 template assessed as number of base pairs at 100 uM
[5] = Stimulation of DNA triplet repeat slippage synthesis using p33-labeled (ATT)3 and unlabeled (AAT)5 template assessed as number of base pairs at 400 uM
[6] = Stimulation of DNA triplet repeat slippage synthesis using p33-labeled (ATT)3 and unlabeled (AAT)5 template assessed as number of base pairs at 50 uM
[7] = Stimulation of DNA triplet repeat slippage synthesis using p33-labeled (ATT)3 and unlabeled (AAT)5 template at 100 uM in presence of doxorubicin
[8] = Binding affinity to double strand DNA by surface plasmon resonance based assay
[9] = Stimulation of DNA triplet repeat slippage synthesis using p33-labeled (ATT)3 and unlabeled (AAT)5 template assessed as number of base pairs at 200 uM

## N[C@H]1[C@H](O[C@H]2C[C@H]3C(=O)c4cc5ccccc5cc4[C@H]3[C@@]23C(=O)CCc2ccccc23)O[C@H](CO)[C@@H](O)[C@@H]1O
[1]
  Activity: Active

## OC[C@H]1O[C@@H](OCCN2c3ccccc3Sc3ccccc32)[C@H](O)[C@@H](O)[C@@H]1O
[2]
  pKi: 4.38
[3]
  pKd: 3.85
[4]
  Activity: 20
[5]
  Activity: 71
[6]
  Activity: 18
[7]
  Activity: inactive
[8]
  pKd: 3.77
[9]
  Activity: 32

## c1ccc2c(c1)Nc1ccccc1S2
[2]
  Activity: inactive
[1]
  Activity: inactive
